According to article PMC11589483, “Preparation and anti-colon cancer effect of a novel curcumin analogue (CA8): in vivo and in vitro evaluation” (Frontiers in Pharmacology, 2024):
Where two headings read alike, the source gives them in different places.

What was measured:
liver cancer cells HepG2 = assay: MTT antiproliferative assay, HepG2; format: cell-based; conditions: Homo sapiens
Method: (§1) The human cancer cell lines A549, HepG2, MCF-7, Caco-2, and HeLa and the normal human liver cell line LO2 were all obtained from Shanghai Cell Bank of China. All cells were cultured in RPMI 1640 or DMEM supplemented with 10% fetal bovine serum, 100 U/mL penicillin, and 100 μg/mL streptomycin and incubated at 37°C under 5% CO2 (HEPA incubator class100 Thermo company). The medium was replaced three times a week. Cells used in all were in the exponential growth phase.
(§2) The cell inhibition rate was evaluated using the MTT assay. Briefly, cells were seeded in a 96-well plate at a density of 3–4 × 10^3 cells per well and incubated at 37°C for 24 h. The MCACs to be tested were dissolved in dimethyl sulfoxide (DMSO, Merck, Germany) and diluted to five concentrations (3.75, 7.5, 15, 30, 60 μM/L) with RPMI 1640 medium, with each dose analyzed in quadruplicate. The concentration of DMSO was always maintained below 1‰, a concentration that is nontoxic to cells. After incubation for 24 or 48 h, MTT reagent (5 mg/mL) was added to each well and the samples were incubated for 3 h at 37°C in the dark. The absorbance of formazan crystals dissolved in 150 µL of DMSO was measured at 570 nm using a microplate reader to identify the cytotoxic effect of the analogues.

[1] = Solubility in water by HPLC; format: physicochemical; conditions: 25°C, mass of solute dissolved at saturation in 100 g of solvent
Method: The solubility of the synthesized compounds in water was determined using high performance liquid chromatography (HPLC). First, 1.000 g of each compound was accurately weighed, placed in 100 g of water, and stirred at 25°C for a period of time. Then, the reaction system was allowed to stand for 1 h. The supernatant was quantitatively taken, diluted with methanol to volume, and centrifuged, and the solubility was determined using HPLC.

[2] = Pharmacokinetics evaluation after gavage; format: in vivo, Sprague Dawley (SD) rats; conditions: SD rats
Method: After the evaluation of the safety of CA8, 10 male Sprague Dawley (SD) rats were randomly divided into the CA8 and CU groups for the pharmacokinetic test ([Ye et al., 2020]). The rats were subjected to 1 week of adaptation and were fasted for 6 h before the experiment. CA8 (50 mg kg^−1) and CU (50 mg kg^−1) were administered via gavage. Blood samples were collected at 0.03, 0.08, 0.16, 0.25, 0.5, 1, 2, 4, 8 and 12 h and centrifuged at 5,000 rpm for 3 min to obtain the plasma. A mixture of ethyl acetate and methanol was then added to precipitate the proteins and separate the CA8 and CU from the plasma. The samples were then analyzed using HPLC.

Caco-2 cells [3] = assay: Apoptosis assay (Annexin V-FITC/propidium iodide flow cytometry); format: cell-based, human; conditions: 4, 8, 16 μM, 24 h
Method: The apoptotic effect of CA8 was assessed in Caco-2 cells according to the kit instructions. First, Caco-2 cells were treated with CA8 at dose of 4, 8, or 16 μM/L for 24 h. The cells were harvested and suspended in 500 μL annexin-binding buffer. Subsequently, the cells were stained with Annexin V-FITC for 15 min and then incubated with propidium iodide for 5 min at room temperature in the dark. Finally, all samples were evaluated via flow cytometry (FACS Calibur, BD, San Jose, CA, United States). The results obtained were analyzed using the FlowJo software, and the apoptotic rate was calculated.

[4] = tested on: cervical cancer cells HeLa; assay: MTT antiproliferative assay, HeLa; format: cell-based; conditions: Homo sapiens
Method: as §1, §2

Caco-2 cells [5] = assay: Hoechst 33,258 staining; format: cell-based, human; conditions: Caco-2, 24 h
Method: Caco-2 cells were seeded in 6-well plates at a density of 5 × 10^5 cells per well and incubated overnight, followed by the addition of the prescribed concentration (4, 8, or 16 μM/L) of CA8. After 24 h of incubation, cells were fixed and stained with Hoechst 33,258.

Caco-2 cells [6] = assay: Cell cycle analysis (flow cytometry); format: cell-based, human; conditions: 4, 8, 16 μM, 24 h
Method: Caco-2 cells treated with CA8 at dose of 4, 8, or 16 μM/L for 24 h, they were collected, washed with PBS, and fixed in 70% ethanol overnight. The fixed cells were washed twice with PBS, treated with RNase A (10 mg/mL) and resuspended in 50 μg/mL propidium iodide for staining. Finally, the cell cycle distribution was assessed via flow cytometry (BD Biosciences, CA).

Ki67 = assay: Immunohistochemistry of tumor tissue; format: in vivo, BALB nude mice; conditions: Caco-2 xenograft, 100 mg/kg
[7] = tested on: AKT, JNK, and NF-κB signaling pathways and apoptosis-related proteins; assay: Western blot of signaling and apoptosis proteins in Caco-2 cells; format: cell-based, human; conditions: 24 h
Method: The expression of apoptotic proteins and pathways was detected using western blot. Caco-2 cells treated with CA8 at a dose of 4, 8, or 16 μM/L for 24 h were collected and lysed with RIPA lysis buffer for 10 min. The concentration of total proteins was determined using a BCA protein quantitative kit. Total proteins were separated on an SDS-PAGE gel, transferred to PVDF membranes and incubated with 5% skim milk for 2 h. Subsequently, the PVDF membranes were incubated with primary antibodies (AKT 1:2000; Bcl-2 1:2000; Bax 1:5000; caspase-3 1:2,000; caspase-9 1:1000; P-AKT 1:1000; JNK 1:1000; P-JNK 1:1000; IKBα 1:2000; and β-actin 1:100000) at 4°C overnight. The membranes were rinsed three times with TBST and incubated with secondary antibodies (1:5000 dilution) for 2–3 h at room temperature. Finally, proteins were visualized using an ECL chemiluminescent kit (KF001, affinity). In the final step, the ImageJ software was used to analyze the results.

[8] = tested on: colon cancer cells Caco-2; assay: MTT antiproliferative assay, Caco-2; format: cell-based, human; conditions: for SI Caco2: logarithm of ratio IC50 LO2 / IC50 cancer cells; for IC50: Homo sapiens, read-out: IC50 Caco2
Method: as §1, §2

[9] = Caco-2, 4, 8, 16 μM, vs control

Molecule COc1cc(/C=C2\CN(C(C)C)C/C(=C\c3cc(OC)c(O)c(OC)c3)C2=O)cc(OC)c1O [CA8] has an IC50 (liver cancer cells HepG2; HepG2, 24 h) of 1790 ± 1320 nM, an IC50 (liver cancer cells HepG2; HepG2, 48 h) of 1840 ± 330 nM and a Solubility [1] of 403.44 mg/100g. For the same molecule, the “AUC (0-t) / bioavailability relative to CU” value ([2]; oral) was 6.23 fold, the “MRT (0-t) / mean residence time relative to CU” value ([2]; oral) was 3.35 fold and the “biological half-life relative to CU” value ([2]; oral) was 2.38 fold. For the same molecule, the “time after dosing until cleared from / still detected in plasma” value ([2]; oral 50 mg kg^−1) was over 8 h, the “AUC(0-t)” value ([2]; oral (gavage) 50 mg kg^−1) was 222,562.75 μg/L*min and the CLz ([2]; oral (gavage) 50 mg kg^−1) was 190 mL/min/kg. The Vz ([2]; oral (gavage) 50 mg kg^−1) was 49.53 L/kg, the Cmax ([2]; male, Sprague Dawley, rat, plasma, oral (gavage) 50 mg kg^−1) was 1360 ng/mL and the MRT last ([2]; male, Sprague Dawley, rat, plasma, oral (gavage) 50 mg kg^−1, read-out: MRT(0-t) (converted)) was 3.02 h. For the same molecule, the Tmax ([2]; male, Sprague Dawley, rat, plasma, oral (gavage) 50 mg kg^−1, read-out: Tmax (converted)) was 0.167 h, the half-life ([2]; male, Sprague Dawley, rat, plasma, oral (gavage) 50 mg kg^−1, read-out: t1/2z) was 2.98 h and the “induction of apoptosis” value (Caco-2 cells [3]) was “induced more apoptosis than CU at high and medium concentrations”. The IC50 ([4]; 24 h) was 4260 ± 520 nM, the IC50 ([4]; 48 h) was 1960 ± 90 nM and the “nuclear morphology / apoptotic cells” value (Caco-2 cells [5]) was “many apoptotic cells were observed”. For the same molecule, the “cell cycle arrest” value (Caco-2 cells [6]) was “induced G2/M phase arrest in a concentration-dependent manner”, the “expression of Ki67 in tumor tissues” value (Ki67) was “significantly reduced the expression of Ki67” and the “expression of Bax, caspase-3, and caspase-9” value ([7]; Caco-2, 4, 8, 16 μM) was “increased in a concentration-dependent manner”. For the same molecule, the “expression of P-AKT” value [7, 9] was “inhibited the expression of P-AKT”, the “expression of P-JNK and IκBα” value [7, 9] was “induced the expression of P-JNK and IκBα in a concentration-dependent manner” and the “expression of anti-apoptotic protein BCL-2” value ([7]; Caco-2, high concentration) was “significantly inhibited”. The “SI Caco2” value ([8]; 24 h) was 0.02, the “cytotoxicity on Caco-2 cells compared with CU” value ([8]; 48 h) was 19.2 times and the “SI Caco2” value ([8]; 48 h) was 0.07. For the same molecule, the IC50 ([8]; Caco-2, 24 h) was 4060 ± 890 nM and the IC50 ([8]; Caco-2, 48 h) was 1710 ± 60 nM.
